The target of one assay is TNKS2 (Homo sapiens (Human), UniProt Q9H2K2). Put plainly: Biochemical IC50 TNKS2. The source says:
(§1) XLfit (idbs) was used to determine the IC50-values in inhibition experiments. The following formula was chosen to fit the data points (Langmuir Binding Isotherm): fit=((A+(B*x))+4(C−B)*(1−exp((−1*D)*x)))/D)), res=(y−fit)

The subject of the next assay is HEK293. Nature of the assay: Cellular IC50 HEK293. The class given is cell-based.
From the text: as §1

[1] abbreviates: read-out: Biochemical IC50 TNKS2.
[2] abbreviates: Homo sapiens, HEK293; read-out: Cellular IC50 HEK293.
Where [3] appears, read: Homo sapiens, HEK293, HEK293; read-out: Cellular IC50 HEK293.
The mark [4] stands for this setting: Homo sapiens, HEK293, read-out: Cellular IC50 HEK293.

Read-outs that look alike come from different tables or passages of the source.

Sequence of TNKS2 (Q9H2K2 whole entry): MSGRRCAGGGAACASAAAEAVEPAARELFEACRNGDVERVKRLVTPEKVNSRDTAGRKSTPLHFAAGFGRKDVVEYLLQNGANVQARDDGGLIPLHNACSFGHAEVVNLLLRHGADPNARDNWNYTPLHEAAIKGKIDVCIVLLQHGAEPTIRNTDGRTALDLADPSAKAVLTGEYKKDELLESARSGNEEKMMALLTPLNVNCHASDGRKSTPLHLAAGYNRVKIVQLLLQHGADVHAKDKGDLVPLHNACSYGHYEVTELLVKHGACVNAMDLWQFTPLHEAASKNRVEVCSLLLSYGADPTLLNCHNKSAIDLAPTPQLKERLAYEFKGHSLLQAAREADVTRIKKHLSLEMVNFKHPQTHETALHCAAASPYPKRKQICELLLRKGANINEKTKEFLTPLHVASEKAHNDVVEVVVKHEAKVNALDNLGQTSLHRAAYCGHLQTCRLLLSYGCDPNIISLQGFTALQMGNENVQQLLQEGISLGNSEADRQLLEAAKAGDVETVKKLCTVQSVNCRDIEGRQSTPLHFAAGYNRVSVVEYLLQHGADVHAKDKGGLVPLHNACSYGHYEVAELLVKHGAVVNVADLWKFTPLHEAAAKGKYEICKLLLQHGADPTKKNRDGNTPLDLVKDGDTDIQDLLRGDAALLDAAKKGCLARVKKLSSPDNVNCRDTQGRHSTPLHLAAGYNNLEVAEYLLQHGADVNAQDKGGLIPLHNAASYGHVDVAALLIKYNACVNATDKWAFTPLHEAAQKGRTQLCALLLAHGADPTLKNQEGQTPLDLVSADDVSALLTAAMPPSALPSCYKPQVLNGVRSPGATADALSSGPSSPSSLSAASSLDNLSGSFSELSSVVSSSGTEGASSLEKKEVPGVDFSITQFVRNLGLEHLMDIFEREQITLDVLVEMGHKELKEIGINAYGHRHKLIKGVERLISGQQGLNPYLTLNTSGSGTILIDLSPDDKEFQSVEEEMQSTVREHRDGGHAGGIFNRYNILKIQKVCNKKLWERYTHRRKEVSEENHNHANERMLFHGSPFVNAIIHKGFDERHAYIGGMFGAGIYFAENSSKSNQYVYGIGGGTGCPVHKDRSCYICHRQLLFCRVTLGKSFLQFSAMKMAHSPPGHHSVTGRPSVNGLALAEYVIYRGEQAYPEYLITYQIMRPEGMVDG

What is called IC50 is the midpoint of a concentration-inhibition curve. Turning to `CCOc1ccc(-c2nnc(C34CC(NC(=O)c5ccnc6cccnc56)(C3)C4)n2-c2ccccn2)nc1` [Example 122, N-(3-(5-(5-ethoxypyridin-2-yl)-4-(pyridin-2-yl)-4H-1,2,4-triazol-3-yl)bicyclo[1.1.1]pentan-1-yl)-1,5-naphthyridine-4-carboxamide], the IC50 at TNKS2 (setting [1]) amounted to 13 nM; in the assay with HEK293 (setting [2]), 20 nM.

`CCOc1ccc(-c2nnc([C@H]3C[C@H](NC(=O)c4cc5ncccc5[nH]4)C3)n2-c2ccccc2F)nc1` [Example 148, N-((1S,3r)-3-(5-(5-ethoxypyridin-2-yl)-4-(2-fluorophenyl)-4H-1,2,4-triazol-3-yl)cyclobutyl)-1H-pyrrolo[3,2-b]pyridine-2-carboxamide]: the IC50 at TNKS2 (setting [1]) is 5 nM; in the assay with HEK293 (setting [3]) it was 8 nM.

Regarding `CCOc1ccc(-c2nnc([C@H]3C[C@H](NC(=O)c4ccc(F)cc4)C3)n2-c2ccccc2)nc1` [Example 70, N-((1r,3r)-3-(5-(5-ethoxypyridin-2-yl)-4-phenyl-4H-1,2,4-triazol-3-yl)cyclobutyl)-4-fluorobenzamide], the IC50 on TNKS2 (setting [1]) came out at 8.5 nM; in the assay with HEK293 (setting [3]), 48 nM.

Regarding `CCOc1ccc(-c2nnc([C@H]3C[C@H](NC(=O)c4ccc(F)cn4)C3)n2-c2ccccc2F)nc1` [Example 59, N-((1S,3r)-3-(5-(5-ethoxypyridin-2-yl)-4-(2-fluorophenyl)-4H-1,2,4-triazol-3-yl)cyclobutyl)-5-fluoropicolinamide], the IC50 on TNKS2 (setting [1]) is 2.4 nM; with HEK293 (setting [3]), 9.5 nM.

In the case of `O=C(N[C@H]1C[C@H](c2nnc(-c3ccccc3)n2-c2ccccc2F)C1)c1ccccn1` [Example 174, N-((1S,3r)-3-(4-(2-fluorophenyl)-5-phenyl-4H-1,2,4-triazol-3-yl)cyclobutyl)picolinamide], the values for the IC50 on TNKS2 (setting [1]) and in the assay on HEK293 (setting [4]) were 216 nM and 789 nM, respectively.

As for `CCOc1ccc(-c2nnc([C@H]3C[C@H](NC(=O)c4ccccn4)C3)n2-c2ccc(Cl)s2)nc1` [Example 75, N-((1r,3r)-3-(4-(5-chlorothiophen-2-yl)-5-(5-ethoxypyridin-2-yl)-4H-1,2,4-triazol-3-yl)cyclobutyl)picolinamide], the IC50 at TNKS2 (setting [1]) worked out at 12 nM; in the assay with HEK293 (setting [4]) it was 27 nM.

Take `Cc1cccc(-c2nnc([C@H]3C[C@H](NC(=O)c4ccc5cnccc5n4)C3)n2-c2ccccc2F)n1` [Example 200, N-((1S,3r)-3-(4-(2-fluorophenyl)-5-(6-methylpyridin-2-yl)-4H-1,2,4-triazol-3-yl)cyclobutyl)-1,6-naphthyridine-2-carboxamide]: the IC50 on TNKS2 (setting [1]) worked out at 4 nM; in the assay on HEK293 (setting [3]), 12 nM.

With `CCOc1ccc(-c2nnc([C@H]3C[C@H](NC(=O)c4cc5occc5[nH]4)C3)n2-c2ccccc2F)nc1` [Example 151, N-((1S,3r)-3-(5-(5-ethoxypyridin-2-yl)-4-(2-fluorophenyl)-4H-1,2,4-triazol-3-yl)cyclobutyl)-4H-furo[3,2-13]pyrrole-5-carboxamide], the 50% inhibitory concentration (IC50) on TNKS2 (setting [1]) is 14 nM; in the assay on HEK293 (setting [3]), 35 nM.

With `O=C(N[C@H]1C[C@H](c2nnc(-c3ccc(OC(F)F)cn3)n2-c2ccccc2F)C1)c1cc(F)cc2nccnc12` [Example 186, N-((1S,3r)-3-(5-(5-(difluoromethoxy)pyridin-2-yl)-4-(2-fluorophenyl)-4H-1,2,4-triazol-3-yl)cyclobutyl)-7-fluoroquinoxaline-5-carboxamide], the IC50 was determined as 2.4 nM at TNKS2 (setting [1]) and 0.508 nM in the assay on HEK293 (setting [4]).

With `CCOc1ccc(-c2nnc([C@H]3C[C@H](NC(=O)c4nc5ccccc5[nH]4)C3)n2-c2ccccc2)nc1` [Example 73, N-((1r,3r)-3-(5-(5-ethoxypyridin-2-yl)-4-phenyl-4H-1,2,4-triazol-3-yl)cyclobutyl)-1H-benzo[d]imidazole-2-carboxamide], the IC50 on TNKS2 (setting [1]) was determined as 7 nM; in the assay on HEK293 (setting [3]) it was 102 nM.

In the case of `CCOc1ccc(-c2nnc([C@H]3C[C@H](NC(=O)c4ccnc5cccnc45)C3)n2-c2ccccc2F)nc1` [Example 55, N-((1S,3r)-3-(5-(5-ethoxypyridin-2-yl)-4-(2-fluorophenyl)-4H-1,2,4-triazol-3-yl)cyclobutyl)-1,5-naphthyridine-4-carboxamide], the half-inhibitory concentration (IC50) at TNKS2 (setting [1]) turned out to be 2 nM; in the assay on HEK293 (setting [2]), 0.814 nM.

`O=C(N[C@H]1C[C@H](c2nnc(-c3ccccc3)n2-c2ccccc2F)C1)c1ccc2cnccc2n1` [Example 178, N-((1S,3r)-3-(4-(2-fluorophenyl)-5-phenyl-4H-1,2,4-triazol-3-yl)cyclobutyl)-1,6-naphthyridine-2-carboxamide]: the figures for the IC50 on TNKS2 (setting [1]) and with HEK293 (setting [3]) were 21 nM and 165 nM, respectively.

In the case of `CCOc1ccc(-c2nnc([C@H]3C[C@H](NC(=O)c4cn5ccccc5n4)C3)n2-c2ccccc2F)nc1` [Example 118, N-((1S,3r)-3-(5-(5-ethoxypyridin-2-yl)-4-(2-fluorophenyl)-4H-1,2,4-triazol-3-yl)cyclobutyl)imidazo[1,2-a]pyridine-2-carboxamide], the IC50 on TNKS2 (setting [1]) stood at 12 nM; in the assay with HEK293 (setting [3]) it was 100 nM.

As to `O=C(N[C@H]1C[C@H](c2nnc(-c3nccs3)n2-c2ccccn2)C1)c1ccnc2cc(F)cnc12` [Example 39, 7-fluoro-N-((1r,3r)-3-(4-(pyridin-2-yl)-5-(thiazol-2-yl)-4H-1,2,4-triazol-3-yl)cyclobutyl)-1,5-naphthyridine-4-carboxamide], the IC50 on TNKS2 (setting [1]) amounted to 28 nM; with HEK293 (setting [3]), 16 nM.

Consider `O=C(N[C@H]1C[C@H](c2nnc(-c3ccccc3)n2-c2ccccc2F)C1)c1ccnc2cc(F)cnc12` [Example 177, 7-fluoro-N-((1S,3r)-3-(4-(2-fluorophenyl)-5-phenyl-4H-1,2,4-triazol-3-yl)cyclobutyl)-1,5-naphthyridine-4-carboxamide], for which the values for the half-maximal inhibitory concentration (IC50) at TNKS2 (setting [1]) and in the assay on HEK293 (setting [3]) were 3.8 nM and 25 nM, respectively.

For `CCOc1ccc(-c2nnc([C@H]3C[C@H](NC(=O)c4ccccc4)C3)n2-c2ccccc2F)nc1` [Example 52, N-((1S,3r)-3-(5-(5-ethoxypyridin-2-yl)-4-(2-fluorophenyl)-4H-1,2,4-triazol-3-yl)cyclobutyl)benzamide], the IC50 at TNKS2 (setting [1]) worked out at 9.5 nM; in the assay on HEK293 (setting [3]) it was 73 nM.

Turning to `CCOc1ccc(-c2nnc([C@H]3C[C@H](NC(=O)c4ccc(F)cc4)C3)n2-c2ccccc2Cl)nc1` [Example 137, N-((1S,3r)-3-(4-(2-chlorophenyl)-5-(5-ethoxypyridin-2-yl)-4H-1,2,4-triazol-3-yl)cyclobutyl)-4-fluorobenzamide], the 50% inhibitory concentration (IC50) at TNKS2 (setting [1]) was 4.9 nM; in the assay on HEK293 (setting [3]), 10 nM.

In the case of `O=C(N[C@H]1C[C@H](c2nnc(-c3nccs3)n2-c2cccnc2)C1)c1cccc2cccnc12` [Example 114, N-((1r,3r)-3-(4-(pyridin-3-yl)-5-(thiazol-2-yl)-4H-1,2,4-triazol-3-yl)cyclobutyl)quinoline-8-carboxamide], the IC50 at TNKS2 (setting [1]) stood at 20 nM; in the assay on HEK293 (setting [3]), 230 nM.

Turning to `COc1ccc(C(=O)N[C@H]2C[C@H](c3nnc(-c4ccncn4)n3-c3ccccc3Cl)C2)nc1` [Example 131, N-((1R,3r)-3-(4-(2-chlorophenyl)-5-(pyrimidin-4-yl)-4H-1,2,4-triazol-3-yl)cyclobutyl)-5-methoxypicolinamide], the figures for the IC50 on TNKS2 (setting [1]) and in the assay with HEK293 (setting [3]) were 4.5 nM and 0.66 nM, respectively.

Turning to `CCOc1ccc(-c2nnc([C@H]3C[C@H](NC(=O)c4cc5sc(C)cc5[nH]4)C3)n2-c2ccccc2F)nc1` [Example 150, N-((1S,3r)-3-(5-(5-ethoxypyridin-2-yl)-4-(2-fluorophenyl)-4H-1,2,4-triazol-3-yl)cyclobutyl)-2-methyl-4H-thieno[3,2-b]pyrrole-5-carboxamide], the results for the IC50 at TNKS2 (setting [1]) and with HEK293 (setting [3]) were 9.5 nM and 16 nM, respectively.

As for `[2H]C([2H])([2H])C([2H])([2H])Oc1ccc(-c2nnc([C@H]3C[C@H](NC(=O)c4cnn5ccccc45)C3)n2-c2ccccc2F)nc1` [Example 142, N-((1S,3r)-3-(5-(5-(ethoxy-d5)pyridin-2-yl)-4-(2-fluorophenyl)-4H-1,2,4-triazol-3-yl)cyclobutyl)pyrazolo[1,5-a]pyridine-3-carboxamide], the figures for the IC50 at TNKS2 and in the assay on HEK293 (setting [3]) were 23 nM and 55 nM, respectively.

Regarding `O=C(N[C@H]1C[C@H](c2nnc(-c3nccs3)n2-c2ccccc2)C1)c1ccnc2cccnc12` [Example 33, N-((1r,3r)-3-(4-phenyl-5-(thiazol-2-yl)-4H-1,2,4-triazol-3-yl)cyclobutyl)-1,5-naphthyridine-4-carboxamide], the IC50 on TNKS2 (setting [1]) worked out at 3.1 nM; in the assay on HEK293 (setting [3]), 4.3 nM.

In the case of `CCOc1ccc(-c2nnc([C@H]3C[C@H](NC(=O)c4ccc(C(C)O)cn4)C3)n2-c2ccccc2F)nc1` (mixture of isomers) [Example 100, rac-N-((1R,3r)-3-(5-(5-ethoxypyridin-2-yl)-4-(2-fluorophenyl)-4H-1,2,4-triazol-3-yl)cyclobutyl)-5-(1-hydroxyethyl)picolinamide], the results for the IC50 at TNKS2 and in the assay with HEK293 (setting [3]) were 8.2 nM and 48 nM, respectively.

As for `CCOc1ccc(-c2nnc([C@H]3C[C@H](NC(=O)c4cc5cc(OC)ncc5[nH]4)C3)n2-c2ccccc2F)nc1` [Example 127, N-((1S,3r)-3-(5-(5-ethoxypyridin-2-yl)-4-(2-fluorophenyl)-4H-1,2,4-triazol-3-yl)cyclobutyl)-5-methoxy-1H-pyrrolo[2,3-c]pyridine-2-carboxamide], the half-maximal inhibitory concentration (IC50) on TNKS2 (setting [1]) was 4.3 nM; in the assay on HEK293 (setting [3]) it was 9.1 nM.

For `O=C(N[C@H]1C[C@H](c2nnc(-c3ccccn3)n2-c2ccccc2F)C1)c1ccnc2cc(F)cnc12` [Example 191, 7-fluoro-N-((1S,3r)-3-(4-(2-fluorophenyl)-5-(pyridin-2-yl)-4H-1,2,4-triazol-3-yl)cyclobutyl)-1,5-naphthyridine-4-carboxamide], the IC50 at TNKS2 (setting [1]) worked out at 1.8 nM; in the assay on HEK293 (setting [2]) it was 3.4 nM.

As to `CCOc1ccc(-c2nnc([C@H]3C[C@H](NC(=O)c4ccc(C(C)(C)O)cn4)C3)n2-c2ccccc2F)nc1` [Example 101, N-((1S,3r)-3-(5-(5-ethoxypyridin-2-yl)-4-(2-fluorophenyl)-4H-1,2,4-triazol-3-yl)cyclobutyl)-5-(2-hydroxypropan-2-yl)picolinamide], the IC50 turned out to be 22 nM at TNKS2 (setting [1]) and 96 nM with HEK293 (setting [3]).
